Experimental data as given in patent US20220251611A1, “BENZALDEHYDE PRODUCTION METHOD” (AJINOMOTO CO., INC., priority 2019, published 2022).
Where two headings read alike, the source gives them in different places.

How the values were obtained:
[1] = system: HmaS At-His purified enzyme (HMAS); conditions: for Generated amount of mandelate: 10 mM sodium phenylpyruvate, 25° C., 15 minutes, no hydrogen peroxide taken as 100%
Protocol: Cells were collected from 10 mL of the HmaS At culture broth obtained in Example 2 by centrifugation, suspended in 2 mL of xTractor Buffer (Takara Bio), and allowed to stand at room temperature for 20 minutes, to disrupt the cells. The cell residue was removed from the disruptant by centrifugation, and the obtained supernatant was used as a soluble fraction. The soluble fraction was applied to a His-tag protein purification column HisTALON Superflow Cartridges (Takara Bio, CV=1 mL) equilibrated with a buffer containing 20 mM Tris-HCl (pH 8.0), 300 mM NaCl, and 10 mM Imidazole, to adsorb proteins on the carrier. Proteins not adsorbed on the carrier (non-adsorbed proteins) were washed off with a buffer containing 20 mM Tris-HCl (pH 8.0), 300 mM NaCl, and 10 mM Imidazole, and then a buffer containing 20 mM Tris-HCl (pH 8.0), 300 mM NaCl, and 150 mM Imidazole was flowed at 1.5 mL/min, to elute the adsorbed proteins. The eluted fractions were collected and concentrated using Amicon Ultra-15 30 k (Millipore). The concentrate was diluted with 20 mM of Tris-HCl (pH 7.6), and hereinafter used as a HmaS At-His purified enzyme.
A reaction mixture (0.2 mL) containing 10 mM of sodium phenylpyruvate, 0.01 mM of iron sulfate, 10 mM of trisodium citrate, 10 mM of sodium ascorbate, 100 mM of Tris-HCl (pH 7.0), 0.02 mg/mL of the HmaS At-His purified enzyme, and 0 to 1 mM of hydrogen peroxide was put into a 1.5 mL-volume tube, and a reaction was carried out at 25° C. Similarly, a reaction without addition of HmaS At-His was carried out. After 15 minutes, a 0.05 mL aliquot of the reaction mixture was mixed with 0.2 mL of a reaction stop solution (1% phosphoric acid), and subjected to HPLC analysis. HPLC analysis was carried out in the same manner as Example 5, and mandelate enzymatically-generated was quantified. The amount of hydrogen peroxide added and the generated amount of mandelate are shown in Table 3, wherein the generated amount of mandelate in the case of not adding hydrogen peroxide was taken as 100%.

[2] = system: benzaldehyde generation from L-Phe by AAD, HmaS At, Md1B and Md1C concentrates; experiment: Synthesis of benzaldehyde from L-Phe with addition of culture broth of catalase-expressing strain; format: biochemical, E. coli; conditions: 50 mM L-Phe, 0.1 mL of 5-fold Cat concentrate in 1 mL reaction mixture, 25° C., 20 hours, then Md1C concentrate 4 hours; HPLC; Ctrl 9.1
Protocol: A 10 mL aliquot of the AAD culture broth obtained in Example 1 was centrifuged, 8 mL of the supernatant was removed, and the cells were suspended in the remaining culture supernatant, to obtain a 5-fold concentrated culture broth. This was used for the following reactions as an AAD concentrate. Similarly, 5-fold concentrates were prepared from the HmaS At culture broths, Md1B culture broth, and Md1C culture broth obtained in Examples 2 to 4, and used for the following reactions as a HmaS At concentrates, Md1B concentrate, and Md1C concentrate. A 1 mL aliquot of the Cat 1 culture broth obtained in Example 6 was centrifuged, 0.8 mL of the supernatant was removed, and the cells were suspended in the remaining culture supernatant, to obtain a 5-fold concentrated culture broth. This was used for the following reactions as a Cat 1 concentrate. Similarly, 5-fold concentrates were prepared from the Cat 2 to 15 culture broths and the Ctrl culture broth, and used for the following reactions as Cat 2 to 15 concentrates and a Ctrl concentrate.
After 20 hours, the reaction mixture was centrifuged, a 0.49 mL aliquot of the supernatant was mixed with 0.01 mL of the Md1C concentrate, and the resultant mixture was put into a test tube and shaken at 25° C. […]

| Compound | Generated amount of mandelate ([1]; 0.001 mM hydrogen peroxide added) [%] | Generated amount of mandelate ([1]; 0.01 mM hydrogen peroxide added) [%] | Generated amount of mandelate ([1]; 0.1 mM hydrogen peroxide added) [%] | Generated amount of mandelate ([1]; 1 mM hydrogen peroxide added) [%] | Effect on HMAS activity ([1]; 0.01 to 1 mM of hydrogen peroxide added) | Benzaldehyde [2] [mM] |
| --- | --- | --- | --- | --- | --- | --- |
| OO [Hydrogen peroxide, hydrogen peroxide] | 103 | 94 | 39 | 1 | inhibits HMAS activity | – |
| Cat 2: Cat HPII derived from E. coli (SEQ ID NO: 6), concentrated culture broth of expressing strain | – | – | – | – | – | 10.7 |
